pKi: −log10 of the molar value.
Experiments:
[1] = target: mushroom tyrosinase (Agaricus bisporus, UniProt C7FF04); assay: Kinetic experiment using mushroom tyrosinase (Lineweaver–Burk and Dixon plots); assay type: biochemical; settings: for pKi: Dixon plots, substrate L-DOPA; for inhibition mechanism: Lineweaver–Burk plots, L-DOPA 1–16 mM
Method: The plots for inhibitors 10 and 15 were obtained by measuring the initial rate of dopachrome production in the presence of various L-DOPA substrate concentrations (Figure 3A,C). For the kinetic experiments, compounds 10 and 15 were used at 0, 1, 2, and 4 μM and at 0, 4, 8, and 16 μM, respectively.
Ki, known as the dissociation constant or inhibition constant, describes the binding affinity between the enzyme and inhibitor. […] Dixon plots were acquired by plotting the inverse of the initial dopachrome formation rate against the inhibitor concentration (Figure 3B,D). Each Dixon plot produces four lines that merge at one point in the second quadrant. The absolute value of the x co-ordinate of the merge point represents the Ki value. […] The lower the Ki value, the stronger the binding affinity. Thus, compound 10 bound more strongly to the tyrosinase active site than compound 15.
The identification of the tyrosinase inhibition mechanism was carried out by kinetic studies using mushroom tyrosinase. Test samples (10 μL; compounds 10 and 15) were mixed with a mushroom tyrosinase aqueous solution (20 μL; 100 units/mL) and a substrate solution (170 μL; substrate [L-DOPA] and 17.2 mM sodium phosphate pH 6.5 buffer) in each well of 96-well microplate. To obtain Lineweaver–Burk plots for kinetic analysis, L-DOPA and test samples were used at various concentrations: 0, 1, 2, and 4 μM for 10; 0, 4, 8, and 16 μM for 15; and 1, 2, 4, 8, and 16 mM for L-DOPA. During a 30 min incubation period, the initial dopachrome formation rate was calculated by measuring the optical density at 475 nm at 5 min intervals using an ELISA reader. Lineweaver–Burk plots were prepared by plotting the inverse of the substrate concentration against the inverse of the initial dopachrome formation rate in the presence of four different concentrations of compounds 10 and 15.

[2] = tested on: B16F10 cells; assay: Cell viability on B16F10 cells (EZ-Cytox); assay type: cell-based; settings: 72 h; for B16F10 cell viability: 1, 2, 5, 10 and 20 μM
Method: Therefore, we investigated whether these compounds exert tyrosinase inhibitory activity in B16F10 mammalian cells. We examined the effects of these compounds on B16F10 cell viability. Cell viability was assessed for 72 h at five concentrations (1, 2, 5, 10, and 20 μM) of compounds 10 and 15.
The viability of B16F10 cells in the presence of compounds 10 and 15 was assayed. A 96-well microplate containing 1 × 10^3 B16F10 cells per well was incubated at 37 °C in a humid environment containing 5% CO2 for 24 h. Test samples (10 and 15) were added to each well at concentrations of 0, 1, 2, 5, 10, and 20 μM and incubated for 72 h. Each well was exposed to a 10 μL EZ-Cytox solution (EZ-500®, DoGenBio, Seoul, Republic of Korea) and incubated for 2 h. To determine cell viability, well optical density was measured at 450 nm using an ELISA reader.

[3] = tested on: B16F10 cells; assay: Melanin content assay in B16F10 cells; assay type: cell-based; settings: α-MSH + IBMX, 72 h
Method: After 72 h, the effect of compound 10 on melanin biosynthesis was determined. A 6-well microplate containing 5 × 10^3 B16F10 cells per well was incubated at 37 °C for 24 h. Compound 10 was added to each well at 5, 10, and 20 μM and incubated for 1 h, and then stimulators (1 μM α-MSH and 200 μM IBMX) were added to each well before 72 h incubation. […] For the melanin content quantification, the cells were lysed at 60 °C for 1 h in 100 μL 1N-NaOH solution containing 10% DMSO after washing 2 times with phosphate-buffered saline (PBS). The cell lysates were transferred to a 96-well microplate and the optical density was measured at 405 nm using an ELISA reader to calculate the melanin content in each well.

[4] = tested on: B16F10 cellular tyrosinase; assay: Cellular tyrosinase activity assay in B16F10 cells; assay type: cell-based; settings: α-MSH + IBMX, 72 h
Method: We analyzed the effect of 10 on B16F10 cellular tyrosinase activity to determine whether the ability of 10 inhibiting melanogenesis results from its ability to inhibit cellular tyrosinase activity.
A 6-well microplate containing 5 × 10^3 B16F10 cells per well was incubated at 37 °C for 24 h. Compound 10 was added to each well at 5, 10, and 20 μM and incubated for 1 h, and then stimulators (1 μM α-MSH and 200 μM IBMX) were added to each well before 72 h incubation.
To measure the cellular tyrosinase activity, the cells incubated for 72 h were washed 2 times with PBS, exposed to a 100 μL lysis buffer solution containing 5 μL 2 mM phenylmethylsulfonyl fluoride, 5 μL 20% Triton X-100, and 90 μL 50 mM phosphate buffer (pH 6.5), and cultivated for 30 min at −80 °C. After the lysates were centrifuged at 4 °C for 10 min at 10,000× g, an aliquot (80 μL) of the supernatants was added to each well of a 96-well microplate containing 20 μL of 10 mM L-DOPA. Data for the optical density at 475 nm were obtained every 1 min for 10 min at 37 °C using an ELISA reader to determine cellular tyrosinase activity.

[5] = tested on: B16F10 cells; assay: In situ cellular tyrosinase activity assay (L-DOPA staining); assay type: cell-based; settings: α-MSH + IBMX, 72 h, then L-DOPA 2 h
Method: The effect of 10 on cellular tyrosinase activity was investigated in situ using L-DOPA and B16F10 cells. This experimental method allows for the direct observation of cellular melanin production. […] After 72 h of incubation, the cells were treated with L-DOPA for 2 h to induce melanin production.
A 24-well plate containing 1 × 10^3 B16F10 cells per well was incubated at 37 °C for 24 h. […] After incubation for 72 h, the cells were fixed for 50 min using paraformaldehyde (4%), rinsed twice with PBS, and permeabilized for 2 min using Triton X-100 (0.1%). The cells were washed with PBS and 500 μL of 2 mM L-DOPA solution was added. After the cells were incubated at 37 °C for 2 h, stained images were obtained using a camera connected to a microscope (Motic, Hong Kong, China).

[6] = Assay for DPPH radical scavenging; settings: 500 μM; 30 min in the dark
Method: To evaluate the DPPH radical-scavenging efficacy of 1–15, a DPPH methanol solution was mixed with compounds 1–15, and the mixture was left in the dark. After 30 min, the radical-scavenging efficacy of each compound was determined by measuring the optical density at 517 nm. Vitamin C (L-ascorbic acid) was used for comparing radical-scavenging activity, and all test samples were treated at 500 μM.
DPPH was dissolved in methanol to prepare a 0.2 mM solution, and test samples (vitamin C [L-ascorbic acid, LA; positive control] and 1–15) were dissolved in DMSO to prepare a 5 mM solution. The DPPH methanolic solution (180 μL) was added to the test sample DMSO solution (20 μL) in each well of a 96-well microplate and kept in a place without light for 30 min at 22 °C. Using a VersaMax™ ELISA reader, the optical density of each well was recorded at 517 nm to determine DPPH radical-scavenging activity.

[7] = Assay for ABTS+ radical scavenging; settings: 100 μM
Method: The ABTS^+-scavenging efficacy of compounds 1–15 was determined by oxidizing ABTS with K2S2O8 to prepare ABTS^+. The prepared ABTS^+ solution was mixed with the test samples (1–15 and Trolox, a positive control) and the radical-scavenging efficacy of the test samples was explored by measuring the decrease in optical density at 732 nm. All test samples were tested at 100 μM.
To acquire ABTS^+ radicals, ABTS (14 mM in 20 mL H2O) was mixed with K2S2O8 (4.9 mM in 20 mL H2O), an oxidant agent, and stored at 22 °C in a place without light for 15 h. The absorbance of the prepared ABTS^+ radical solution was adjusted to 0.70 ± 0.01 at 732 nm by adding methanol. Test samples (Trolox [positive control] and 1–15) were dissolved in a co-solvent (DMSO:EtOH = 1:10 [v/v]). The diluted ABTS^+ radical solution (90 μL) was added to the test sample solution (10 μL) in each well of a 96-well plate and held at 22 °C in the dark for 2 min. The optical density of each well was recorded at 732 nm every 1 min for 10 min using an ELISA reader. The final concentration of test samples was 100 μM. %Radical-scavenging activity was determined using the formula 100 × [(Abscon − Abssam)/Abscon], where Abscon and Abssam represent the optical densities of the control and the samples, respectively.

[8] = tested on: zebrafish larvae; assay: Zebrafish depigmentation assay using zebrafish embryos; assay type: in vivo, Danio rerio; set-up: pigmentation of zebrafish larvae: dose or concentration left out as unconfirmed; settings: treated at 28 hpf, read at 76 hpf
Method: Zebrafish embryos were used to determine whether the synthesized compounds could inhibit melanin synthesis in vivo. […] The degree of depigmentation in zebrafish larvae was confirmed by photography 48 h later (Figure 8A). The density of the zebrafish larvae was measured using a CS analyzer 3.2 (Atto, Tokyo, Japan). […] To obtain zebrafish (wild type, Danio rerio) eggs for the experiment, six male and nine female zebrafish were raised separately in oxygen-connected tanks. Dried brine shrimp (Artemia salina, San Francisco Bay Brand, San Francisco, CA, USA) were fed as food three times per day. They were raised at 28 °C with 10 h of light blocking and 14 h of light exposure. The evening before obtaining zebrafish eggs, three females and two males were placed together in three zebrafish mating cages, and the light was blocked. The following morning, mating was induced by exposure to light. Harvested zebrafish eggs, obtained free of charge from the Zebrafish Center for Disease Modeling (Chungnam National University, Daejeon, Republic of Korea), were kept in an E3 embryonic solution containing methylene blue (MB) until the dechorionation process was performed. […] The pigmented areas in the zebrafish larval photographs were determined using an ATTO CS analyzer 3.2 (Tokyo, Japan).

[9] = tested on: tyrosinase activity of zebrafish larvae; assay: Tyrosinase activity in zebrafish larvae; assay type: in vivo, Danio rerio; settings: 76 hpf
Method: To quantify the tyrosinase activity in zebrafish larvae, 60 zebrafish larvae at 76 hpf were divided into three Eppendorf tubes and centrifuged at 10,000× g for 10 min at 4 °C. After removing the supernatant, the residue was lysed using radioimmunoprecipitation assay buffer (100 μL) (Biosedang, Gyeonggi-do, Republic of Korea) and homogenized for 5 min using a sonicator. The lysate was centrifuged at 10,000× g for 10 min at 4 °C. The supernatants were transferred to a new Eppendorf tube and the protein content was quantified using a bicinchoninic acid protein assay kit (Thermo Fisher Scientific, Waltham, MA, USA). An aliquot (100 μL) of 1 mM L-DOPA was added to the new Eppendorf tube containing a total of 300 μg of protein in 100 μL of protein lysate. Eppendorf tubes were incubated for 1 h at 37 °C and then transferred to each well of a 96-well plate. The absorbance of each well was measured at 475 nm to determine the tyrosinase activity of zebrafish larvae.

mushroom tyrosinase, sequence (C7FF04 1-392): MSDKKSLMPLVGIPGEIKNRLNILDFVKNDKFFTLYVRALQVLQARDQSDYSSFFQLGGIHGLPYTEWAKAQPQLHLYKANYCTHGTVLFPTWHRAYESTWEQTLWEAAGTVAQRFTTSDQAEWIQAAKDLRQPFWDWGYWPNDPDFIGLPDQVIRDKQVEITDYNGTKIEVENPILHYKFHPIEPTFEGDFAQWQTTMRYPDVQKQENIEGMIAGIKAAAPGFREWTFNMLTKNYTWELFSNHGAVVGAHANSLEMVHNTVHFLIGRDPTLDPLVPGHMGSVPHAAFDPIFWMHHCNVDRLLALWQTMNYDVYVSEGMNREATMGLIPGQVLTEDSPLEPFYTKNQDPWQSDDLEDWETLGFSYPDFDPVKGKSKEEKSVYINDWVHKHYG

With `O=C1N=C(Nc2cccc3ccccc23)S/C1=C\c1ccc(O)cc1O` [Compound 10, (Z)-5-(2,4-Dihydroxybenzylidene)-2-(naphthalen-1-ylamino)thiazol-4(5H)-one] as the compound, how does the pKi [1] read?
Its pKi is 5.69.

And the inhibition mechanism [1]?
Its inhibition mechanism is “compete with the substrates for binding to the active site of tyrosinase”.

What about the B16F10 cell viability [2] of the same compound?
Its B16F10 cell viability is “no perceptible effect on B16F10 cell viability”.

What about the stimulator-induced melanin content ([3]; 5 μM, kojic acid at 20 μM) of the same compound?
Its stimulator-induced melanin content is “reduced the stimulator-induced melanin content levels similarly to kojic acid”.

What about the melanin content level ([3]; 20 μM, controls 100%) of the same compound?
Its melanin content level is 86%.

And the stimulator-induced melanin content ([3]; 5, 10 and 20 μM)?
The stimulator-induced melanin content was “strongly reduced stimulator-induced melanin content dose-dependently”.

What about the cellular tyrosinase activity ([4]; 10 μM) of the same compound?
Its cellular tyrosinase activity is “slightly more potent tyrosinase inhibitory potency than kojic acid at 20 μM”.

And the cellular tyrosinase activity ([4]; 20 μM)?
The cellular tyrosinase activity was “reduced cellular tyrosinase activity to almost the level of cellular tyrosinase activity in the untreated control”.

What about the cellular tyrosinase activity ([4]; 5, 10 and 20 μM) of the same compound?
The cellular tyrosinase activity was “dose-dependent decrease in cellular tyrosinase activity”.

What about the “in situ melanin formation (L-DOPA staining)” value (from here on “in situ melanin formation”) ([5]; 20 μM) of the same compound?
The value was “reduced melanin formation to the level of the untreated control”.

What about the “in situ melanin formation” value ([5]; 5, 10 and 20 μM) of the same compound?
Its value is “dose-dependently decreased melanin formation”.

What about the DPPH radical scavenging [6] of the same compound?
Its DPPH radical scavenging is 51%.

What about the “ABTS+ scavenging” value [7] of the same compound?
The value was 97%.

With `O=C1N=C(Nc2cccc3ccccc23)S/C1=C\c1ccc(O)c(Br)c1` [Compound 15, (Z)-5-(3-Bromo-4-hydroxybenzylidene)-2-(naphthalen-1-ylamino)thiazol-4(5H)-one] as the compound, how does the pKi [1] read?
Its pKi is 5.31.

And the inhibition mechanism [1]?
Its inhibition mechanism is “compete with the substrates for binding to the active site of tyrosinase”.

And the “cytotoxicity in B16F10 cells” value ([2]; 1 μM)?
The value was “significant cytotoxicity was observed”.

And the B16F10 cell viability [2]?
Its B16F10 cell viability is “clearly reduced cell viability in a concentration-dependent manner”.

What about the “depigmentation capacity in zebrafish larvae” value ([8]; 0.1 mM vs kojic acid 20 mM) of the same compound?
The value was “depigmentation capacity similar to that of kojic acid, even at a concentration 200 times lower”.

And the “tyrosinase activity of zebrafish larvae compared with kojic acid” value ([9]; 0.3 mM vs kojic acid 20 mM)?
The value was “comparable to that of kojic acid, even at a concentration 70 times lower”.

What about the “tyrosinase activity of zebrafish larvae” value ([9]; 0.1 and 0.3 mM) of the same compound?
The value was “decreased tyrosinase activity in a concentration-dependent manner”.

For `O=c1cc(CO)occ1O` [Kojic acid, reference compound], which stimulator-induced melanin content ([3]; 20 μM, stimulators alone 3.9-fold) is on record?
Its stimulator-induced melanin content is 3.4 fold.

And the cellular tyrosinase activity ([4]; 20 μM, stimulators alone 3.9-fold vs untreated control)?
The cellular tyrosinase activity was 3.3 fold.

What about the “in situ melanin formation” value ([5]; 20 μM) of the same compound?
Its value is “melanin production was suppressed compared with that in the group treated with only stimulators”.

And the “pigmentation of zebrafish larvae” value [8]?
Its value is “pigmentation of zebrafish larvae was reduced”.

And the “tyrosinase activity of zebrafish larvae” value ([9]; 20 mM)?
Its value is “significantly reduced tyrosinase activity”.
